{"source": "ChEMBL document CHEMBL3832057", "tested_on": "Homo sapiens", "assay": "Evaluation of pharmacokinetic parameters for Rifampin in serum following single oral administration of 10 mg/kg Rifampin to pediatric patients.", "type": "ADME, organism-based", "set-up": "dose 600 mg, dose 10 mg/kg, route oral", "settings": "in vivo, dosed compound id 35, dosed compound name RIFAMPICIN, gender male and female, regimen Single dose, tissue Serum", "data": [{"smiles": "CO[C@H]1/C=C/O[C@@]2(C)Oc3c(C)c(O)c4c(O)c(c(/C=N/N5CCN(C)CC5)c(O)c4c3C2=O)NC(=O)/C(C)=C\\C=C\\[C@H](C)[C@H](O)[C@@H](C)[C@@H](O)[C@@H](C)[C@H](OC(C)=O)[C@@H]1C", "note": "[RIFAMPIN]", "values": [{"measurement": "Tmax", "result": 1, "unit": "h"}]}]}
